IC50 data for 11 compounds are collected here from patent US20250122191A1, “COMPOUNDS AS BCL-2 INHIBITORS” (Fochon Biosciences, Ltd, priority 2021, published 2025).

In assay [1] the test system is RS4;11-BCL-2 G101V cells. Put plainly: Cell proliferation assay (MTS), RS4;11-BCL-2 G101V engineered cells. Type of assay: cell-based. As to conditions: Homo sapiens, 120 h, read-out: RS4, 11 BCL2-G101V IC50. In a few lines: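 Proliferation IC50 in RS4;11 lines engineered with BCL-2 mutations, measured by MTS at 490 nm after 72 h (D103E, D103Y) or 120 h (G101V, F104L) compound treatment at 37 °C.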

The test system of assay [2] is RS4;11-BCL-2 F104L cells. The assay is described as follows: Cell proliferation assay (MTS), RS4;11-BCL-2 F104L engineered cells. To be noted: Homo sapiens, 120 h, read-out: RS4, 11 BCL2-F104L IC50. Type of assay: cell-based. From the text: MTS testing kit was purchased from Promega (Madison, WI, USA). The RPMI-1640, Fetal bovine serum and Penicillin-Streptomycin were purchased from BI (Biological Industries, Beit Haemek, Israel). Puromycin was purchased from Beyotime (shanghai, China). Dimethyl sulfoxide (DMSO) was purchased from Sigma (St. Louis., MO, USA). RS4;11-BCL-2 G101V (Cobioer Lot. #: CBD2021063013P4), RS4;11-BCL-2 D103E (Cobioer Lot. #: CBD2021063013P4), RS4;11-BCL-2 D103Y (Cobioer Lot. #: CBD2022012101P4) and RS4;11-BCL-2 F104L (Cobioer Lot. #: CBD2021063014P4) cells were cultured in RPMI1640 supplemented with 1 ug/mL puromycin, 100 U/mL Penicillin-Streptomycin and 10% FBS.
To investigate whether a compound is able to inhibit the activity of BCL-2 mutation in cells, a mechanism-based assay using engineered cell lines stably overexpressing BCL-2 mutation (RS4;11-BCL-2 G101V, RS4;11-BCL-2 D103E, RS4;11-BCL-2 D103Y, and RS4;11-BCL-2 F104L) was developed. In this assay, the inhibition of BCL-2 mutation was reflected by the inhibition of cell proliferation of engineered RS4;11 cells. Cells were plated into 96-well plates at optimized cell density (RS4;11-BCL-2 G101V: 5000 cells/well; RS4;11-BCL-2 D103E: 7500 cells/well; RS4;11-BCL-2 D103Y: 7500 cells/well; RS4;11-BCL-2 F104L: 5000 cells/well). Plates were incubated at 37° C., with 5% CO2 for 4 h (RS4;11-BCL-2 G101V, RS4;11-BCL-2 F104L) and 24 h (RS4;11-BCL-2 D103E, RS4;11-BCL-2 D103Y), respectively. Compounds were serially diluted and added to the plates with the final concentrations of 10000, 3333.3, 1111.1, 370.4, 123.5, 41.2, 13.7, 4.6 and 1.5 nM. Plates were incubated at 37° C., with 5% CO2 for 120 h (RS4; 11-BCL-2 G101V, RS4; 11-BCL-2 F104L) and 72 h (RS4;11-BCL-2 D103E, RS4;11-BCL-2 D103Y), respectively. 20 μl MTS was added into each well and the plates were incubated at 37° C., with 5% CO2 exactly for 2 h. The absorbance was measured by a microplate reader at 490 nm. IC50 values were calculated using GraphPad Prism 8.0 software.

As usually defined, the IC50 is the concentration that inhibits the measured activity by half. In the case of `COc1cc(CN2CCN(C3CC4(CCN(c5ccc(C(=O)NS(=O)(=O)c6cnc(NC[C@H]7CC[C@](C)(O)CC7)c([N+](=O)[O-])c6)c(Oc6cc7c(F)c[nH]c7nc6OC)c5)CC4)C3)[C@H](c3ccccc3C(C)C)C2)cc(C)n1` [Example 55, 2-((3-fluoro-6-methoxy-1H-pyrrolo[2,3-b]pyridin-5-yl)oxy)-N-((6-((((1r,4r)-4-hydroxy-4-methylcyclohexyl)methyl)amino)-5-nitropyridin-3-yl)sulfonyl)-4-(2-((R)-2-(2-isopropylphenyl)-4-((2-methoxy-6-methylpyridin-4-yl)methyl)piperazin-1-yl)-7-azaspiro[3.5]nonan-7-yl)benzamide], the IC50 in assay [1] and in assay [2] was 1 nM in each case. Regarding `COc1ccc(CN2CCN(C3CC4(CCN(c5ccc(C(=O)NS(=O)(=O)c6cnc(NC[C@H]7CC[C@](C)(O)CC7)c([N+](=O)[O-])c6)c(Oc6cnc7[nH]ccc7c6)c5)CC4)C3)[C@H](c3ccccc3C(C)C)C2)c2cc(C)oc12` [Example 66, 2-((1H-pyrrolo[2,3-b]pyridin-5-yl)oxy)-N-((6-((((1r,4r)-4-hydroxy-4-methylcyclohexyl)methyl)amino)-5-nitropyridin-3-yl)sulfonyl)-4-(2-((R)-2-(2-isopropylphenyl)-4-((7-methoxy-2-methylbenzofuran-4-yl)methyl)piperazin-1-yl)-7-azaspiro[3.5]nonan-7-yl)benzamide], the IC50 in assay [1] and in assay [2] was 1 nM in each case.

`COc1cc(CN2CCC(N3CC4(CCN(c5ccc(C(=O)NS(=O)(=O)c6cnc(NC[C@H]7CC[C@](C)(O)CC7)c([N+](=O)[O-])c6)c(Oc6cc7c(F)c[nH]c7nc6OC)c5)CC4)C3)[C@H](c3ccccc3C(C)C)C2)ccn1` (single isomer, unassigned) [Example 363, 2-((3-fluoro-6-methoxy-1H-pyrrolo[2,3-b]pyridin-5-yl)oxy)-N-((6-((((1r,4r)-4-hydroxy-4-methylcyclohexyl)methyl)amino)-5-nitropyridin-3-yl)sulfonyl)-4-(2-(3-(2-isopropylphenyl)-1-((2-methoxypyridin-4-yl)methyl)piperidin-4-yl)-2,7-diazaspiro[3.5]nonan-7-yl)benzamide]: the IC50 in assay [2] turned out to be 1 nM. In the case of `COc1ccc(CN2CCC(N3CC4(CCN(c5ccc(C(=O)NS(=O)(=O)c6cnc(NC[C@H]7CC[C@](C)(O)CC7)c([N+](=O)[O-])c6)c(Oc6cc7c(F)c[nH]c7nc6OC)c5)CC4)C3)C(c3ccccc3C(C)C)C2)cc1` (some centres unmarked) [Example 19, 2-((3-fluoro-6-methoxy-1H-pyrrolo[2,3-b]pyridin-5-yl)oxy)-N-((6-((((1r,4r)-4-hydroxy-4-methylcyclohexyl)methyl)amino)-5-nitropyridin-3-yl)sulfonyl)-4-(2-(3-(2-isopropylphenyl)-1-(4-methoxybenzyl)piperidin-4-yl)-2,7-diazaspiro[3.5]nonan-7-yl)benzamide], the IC50 in assay [2] worked out at 1 nM.

Take `CCOc1cc(CN2CCN(C3CC4(CCN(c5ccc(C(=O)NS(=O)(=O)c6cnc(NC[C@H]7CC[C@](C)(O)CC7)c([N+](=O)[O-])c6)c(Oc6cc7c(F)c[nH]c7nc6OC)c5)CC4)C3)[C@H](c3ccccc3C(C)C)C2)ccn1` [Example 65, 4-(2-((R)-4-((2-ethoxypyridin-4-yl)methyl)-2-(2-isopropylphenyl)piperazin-1-yl)-7-azaspiro[3.5]nonan-7-yl)-2-((3-fluoro-6-methoxy-1H-pyrrolo[2,3-b]pyridin-5-yl)oxy)-N-((6-((((1r,4r)-4-hydroxy-4-methylcyclohexyl)methyl)amino)-5-nitropyridin-3-yl)sulfonyl)benzamide]: the IC50 in assay [1] and in assay [2] was 1 nM throughout.

On to `COc1cc(CN2CCN(C3CC4(CCN(c5ccc(C(=O)NS(=O)(=O)c6cnc(NC[C@H]7CC[C@](C)(O)CC7)c([N+](=O)[O-])c6)c(Oc6cc7c(F)c[nH]c7nc6OC)c5)CC4)C3)[C@H](c3ccccc3C(C)C)C2)cc(C#N)n1` [Example 56, 4-(2-((R)-4-((2-cyano-6-methoxypyridin-4-yl)methyl)-2-(2-isopropylphenyl)piperazin-1-yl)-7-azaspiro[3.5]nonan-7-yl)-2-((3-fluoro-6-methoxy-1H-pyrrolo[2,3-b]pyridin-5-yl)oxy)-N-((6-((((1r,4r)-4-hydroxy-4-methylcyclohexyl)methyl)amino)-5-nitropyridin-3-yl)sulfonyl)benzamide], for which the figures for the IC50 in assay [1] and in assay [2] were 2 nM and 3 nM, respectively. On to `COc1cc(CN2CCN(C3CC4(CCN(c5ccc(C(=O)NS(=O)(=O)c6cnc(NC[C@H]7CC[C@](C)(O)CC7)c([N+](=O)[O-])c6)c(Oc6cc7c(F)c[nH]c7nc6OC)c5)CC4)C3)[C@H](c3ccccc3C(C)C)C2)cc(N)n1` [Example 57, 4-(2-((R)-4-((2-amino-6-methoxypyridin-4-yl)methyl)-2-(2-isopropylphenyl)piperazin-1-yl)-7-azaspiro[3.5]nonan-7-yl)-2-((3-fluoro-6-methoxy-1H-pyrrolo[2,3-b]pyridin-5-yl)oxy)-N-((6-((((1r,4r)-4-hydroxy-4-methylcyclohexyl)methyl)amino)-5-nitropyridin-3-yl)sulfonyl)benzamide], for which the IC50 in assay [1] and in assay [2] was 1 nM throughout.

In the case of `COc1cc(CN2CCN(C3CC4(CCN(c5ccc(C(=O)NS(=O)(=O)c6cnc(NC[C@H]7CC[C@](C)(O)CC7)c([N+](=O)[O-])c6)c(Oc6cc7c(F)c[nH]c7nc6OC)c5)CC4)C3)[C@H](c3ccccc3C(C)C)C2)cc(SC)n1` [Example 63, 2-((3-fluoro-6-methoxy-1H-pyrrolo[2,3-b]pyridin-5-yl)oxy)-N-((6-((((1r,4r)-4-hydroxy-4-methylcyclohexyl)methyl)amino)-5-nitropyridin-3-yl)sulfonyl)-4-(2-((R)-2-(2-isopropylphenyl)-4-((2-methoxy-6-(methylthio)pyridin-4-yl)methyl)piperazin-1-yl)-7-azaspiro[3.5]nonan-7-yl)benzamide], the IC50 in assay [1] and in assay [2] was 1 nM in each case.

Consider `CCOc1nc2[nH]cc(F)c2cc1Oc1cc(N2CCC3(CC2)CC(N2CCC[C@H]2c2ccccc2C(C)C)C3)ccc1C(=O)NS(=O)(=O)c1cnc(NC[C@H]2CC[C@](C)(O)CC2)c([N+](=O)[O-])c1` [Example 90, 2-((6-ethoxy-3-fluoro-1H-pyrrolo[2,3-b]pyridin-5-yl)oxy)-N-((6-((((1r,4r)-4-hydroxy-4-methylcyclohexyl)methyl)amino)-5-nitropyridin-3-yl)sulfonyl)-4-(2-((S)-2-(2-isopropylphenyl)pyrrolidin-1-yl)-7-azaspiro[3.5]nonan-7-yl)benzamide], for which the IC50 in assay [2] was determined as 1 nM. In the case of `CCOc1nc2[nH]cc(F)c2cc1Oc1cc(N2CCC3(CC2)CC(N2CCOC[C@H]2c2ccccc2C(C)C)C3)ccc1C(=O)NS(=O)(=O)c1cnc(NC[C@H]2CC[C@](C)(O)CC2)c([N+](=O)[O-])c1` [Example 88, 2-((6-ethoxy-3-fluoro-1H-pyrrolo[2,3-b]pyridin-5-yl)oxy)-N-((6-((((1r,4r)-4-hydroxy-4-methylcyclohexyl)methyl)amino)-5-nitropyridin-3-yl)sulfonyl)-4-(2-((R)-3-(2-isopropylphenyl)morpholino)-7-azaspiro[3.5]nonan-7-yl)benzamide], the IC50 in assay [2] worked out at 1 nM. Consider `CCOc1nc2[nH]cc(F)c2cc1Oc1cc(N2CCC3(CC2)CN(C2CCN(Cc4ccc(OC)cc4)CC2c2ccccc2C(C)C)C3)ccc1C(=O)NS(=O)(=O)c1cnc(NC[C@H]2CC[C@](C)(O)CC2)c([N+](=O)[O-])c1` (some centres unmarked) [Example 20, 2-((6-ethoxy-3-fluoro-1H-pyrrolo[2,3-b]pyridin-5-yl)oxy)-N-((6-((((1r,4r)-4-hydroxy-4-methylcyclohexyl)methyl)amino)-5-nitropyridin-3-yl)sulfonyl)-4-(2-(3-(2-isopropylphenyl)-1-(4-methoxybenzyl)piperidin-4-yl)-2,7-diazaspiro[3.5]nonan-7-yl)benzamide], for which the IC50 in assay [2] came to 3 nM.
